pEC50: −log10 of the molar value. Like-named read-outs stand apart in the source and are kept apart here.
How the values were obtained:
[1] = type: in vivo, Nu/Nu mice; conditions: for Mean body weight loss on day 28: 100 mg/kg per dose
Description: Therefore, the most efficacious dosage of 100 mg/kg was further evaluated as described below.

[2] = type: in vivo, mice; conditions: at target plasma concentration, corrected for protein binding
Plasma protein binding = type: in vitro ADME
[3] = test system: SKMEL-2 (wild-type Raf, mutant N-Ras); conditions: SKMEL-2 cells; 0.1 μM to 10 μM; 4 hours of incubation
[4] = test system: CHL-1 (wild-type Raf, wild-type Ras); conditions: CHL-1 cells; 0.1 μM to 10 μM; 4 hours of incubation
human tumor isolate #4 [5] = conditions: Pancreatic tumor, K-Ras
human tumor isolate #5 [6] = conditions: Colorectal tumor, K-Ras
[7] = test system: HT-29 (B-Raf V600E) colorectal carcinoma tumors; conditions: HT29, q2 d × 14, oral
[8] = test system: SKMEL-28 (mutant B-Raf V600E); test: cells; conditions: Homo sapiens, SK-MEL-28, read-out: pERK inhibition EC50
WM1799 (cell line) = test: cells; conditions: WM-1799, 168 h
HT-29 (cell line) = test: cells; conditions: Homo sapiens, HT-29, 168 h
Colo205 (cell line) = test: cells; conditions: Homo sapiens, COLO 205, 168 h
human tumor isolate #1 = test: cells
human tumor isolate #2 = test: cells
human tumor isolate #3 = test: cells
human tumor isolate #4 [9] = test: cells; conditions: Pancreatic tumor, K-Ras
human tumor isolate #5 [10] = test: cells; conditions: Colorectal tumor, K-Ras
human tumor isolate #6 = test: cells
human tumor isolated #7 = test: tissue or blood

average loss of starting body weight by day 14 ([1]; daily dosing, 30 mg/kg and 100 mg/kg dose levels): 10%
rough estimation of free drug concentration [2]: approximately 0.135 μM
protein bound in plasma (Plasma protein binding): greater than 99.9%
pEC50 (human tumor isolate #4 [5]): 5.90
pEC50 (human tumor isolate #5 [6]): 5.92
pEC50 [8]: 7.00
pEC50 (WM1799 (cell line)): > 8.01
pEC50 (HT-29 (cell line)): 7.59
pEC50 (Colo205 (cell line)): 6.89
pEC50 (human tumor isolate #1): 7.26
pEC50 (human tumor isolate #2): 6.70
pEC50 (human tumor isolate #3): 6.24
pEC50 (human tumor isolate #4 [9]): ~6.00
pEC50 (human tumor isolate #5 [10]): ~6.00
pEC50 (human tumor isolate #6): < 6.00
pEC50 (human tumor isolated #7): < 6.00
Structure (SMILES): Cn1c(Nc2ccc(C(F)(F)F)cc2)nc2cc(Oc3ccnc(-c4ncc(C(F)(F)F)[nH]4)c3)ccc21 [Example 1, {1-Methyl-5-[2-(5-trifluoromethyl-1H-imidazol-2-yl)-pyridin-4-yloxy]-1H-benzoimidazol-2-yl}-(4-trifluoromethyl-phenyl)-amine]
Mean body weight loss on day 28 ([1]; q2 d): 12%
Mean body weight loss on day 28 ([1]; q3 d): 8%
Mean body weight loss on day 28 ([1]; q4 d): 7%
inhibition of Raf downstream signaling (MEK phosphorylation) [3]: potent inhibitor of Raf downstream signaling
inhibition of Raf downstream signaling (MEK phosphorylation) [4]: potent inhibitor of Raf downstream signaling
TGI/Regression ([7]; 10 mg/kg): 12% TGI
TGI/Regression ([7]; 100 mg/kg): tumor regression

Reference: US7482367B2, “Substituted benzimidazoles and methods of their use” (Novartis Vaccines and Diagnostics, Inc., priority 2005, dated 2009)
